{"source": "patent US6908905B2", "about": "“N-substituted pyrazole-O-glycoside derivatives and therapeutic agent for diabetes containing the same” (Ajinomoto Co., Inc., priority 2001, dated 2005)", "key": {"[1]": {"tested_on": "male Wistar rats", "assay": "Evaluation of effect on urinary excretion of sugar in rats (Example 8)", "type": "in vivo", "details": "rat, oral, 24 hours", "protocol": "Five-week-old male Wistar rats (purchased from Charles River Japan, Inc.) were housed in metabolic cages for about one week prior to the experiment. A test compound was suspended in olive oil, so that solutions of the compound with concentrations of […] were prepared to have a dose of 5 ml/kg body weight of the rat. After the rats were not fed for 4 hours, the test compound was orally administered to the rats at a dosage of 10, 30 and 100 mg/kg at 11 a.m. Urine of the rat was collected for a given period of time from the time immediately after the administration to 24 hours after the administration, and the urine volume was measured. Subsequently, the glucose concentration in urine was determined by the glucose oxidase method and the daily amount of glucose excreted in urine per individual was calculated.\nAs the positive control compound, 3-(benzo[b]furan-5-yl)-2′,6′-dihydroxy-4′-methylpropiophenone 2′-O-(6-O-methoxycarbonyl-β-D-glucopyranoside) was used."}, "[2]": {"tested_on": "rat", "details": "oral administration, increase of sugar excreted in urine, decrease of blood sugar; cited from earlier work"}}, "data": [{"smiles": "COC(=O)OC[C@H]1O[C@@H](Oc2cc(C)cc(O)c2C(=O)CCc2ccc3occc3c2)[C@H](O)[C@@H](O)[C@@H]1O", "note": "[Positive Control Compound, 3-(benzo[b]furan-5-yl)-2′,6′-dihydroxy-4′-methylpropiophenone 2′-O-(6-O-methoxycarbonyl-β-D-glucopyranoside)]", "values": [{"measurement": "The amount of glucose excreted in urine", "setting": "[1]; 10 mg/kg", "result": 2, "unit": "mg"}, {"measurement": "The amount of glucose excreted in urine", "setting": "[1]; 30 mg/kg", "result": 78, "unit": "mg"}, {"measurement": "The amount of glucose excreted in urine", "setting": "[1]; 100 mg/kg", "result": 274, "unit": "mg"}, {"measurement": "dose needed to exhibit the efficacy", "setting": "[2]", "result": 100, "unit": "mg/kg"}]}]}
